Laboratory results published in PMC7450938, “Prenatal to early postnatal neurotrophic treatment prevents Alzheimer-like behavior and pathology in mice” (Alzheimer's Research & Therapy, 2020).

Experiments:
[1] = test system: 3xTg-AD mice; assay: Morris water maze; assay type: in vivo, mouse; settings: ~4 months
Experimental: Pregnant 3xTg-AD and wild-type (WT) mice were treated with compound P021 in mouse chow, or as control with vehicle feed from gestational day 8 (E8) till their offspring/pups reached PND21, at which point the offspring were separated from their mother and put on normal mouse chow (Fig. 1). There were four study groups of mice, as follows: offspring of WT treated with vehicle diet (WT-Vh, n = 10), offspring of WT treated with […] diet (WT-[…], n = 17), offspring of 3xTg-AD treated with vehicle diet (3xTg-Vh, n = 12), and offspring of 3xTg-AD treated with […] diet (3xTg-[…], n = 18). Elevated plus maze, novel object recognition test, and Morris water maze were carried out consecutively from postnatal day 90 with all of mice. About 50% (4 animals/group) of the female offspring (n = 7-8 animals/group) were sacrificed at 4 months of age and the remaining 50% (3-4 animals/group) at 22 months of age. Left cerebral hemisphere homogenate was used for biochemical analysis and right cerebral hemisphere for immunohistochemical studies. We treated 2- to 3-month-old pregnant 3xTg-AD and WT mothers with compound P021 in mouse chow, or with vehicle feed as control at E8 until their offspring/pups reached PND21, at which point the offspring were separated and put on standard mouse chow (Fig. 1). Treatment was administered as 60 nmol peptide/g formulated diet (Research Diets; New Brunswick, NJ, USA). The vehicle-treated control animals received the same diet but without the peptide. On average, each mouse consumed ~ 2.7 g diet/day. The Morris water maze task was used to evaluate spatial learning and memory of the mice. A total of 57 mice were subjected to the Morris water maze task at about 4 months of age. The test was performed in a circular white pool (with a diameter of 180 cm and a height of 60 cm) filled with nontoxic white dye-tinted water and maintained at room temperature (20 ± 1 °C). The maze was designed with two virtual principal axes, with each line bisecting the maze perpendicular to the other one to divide the maze into four equal quadrants. […]

[2] = test system: Aβ plaques; assay: Aβ immunofluorescence, amyloid plaques in brain sections; assay type: in vivo, mouse; settings: 22-month-old 3xTg-AD mice, P021 diet E8-PND21
Experimental: (§1) We treated 2- to 3-month-old pregnant 3xTg-AD and WT mothers with compound P021 in mouse chow, or with vehicle feed as control at E8 until their offspring/pups reached PND21, at which point the offspring were separated and put on standard mouse chow (Fig. 1). Treatment was administered as 60 nmol peptide/g formulated diet (Research Diets; New Brunswick, NJ, USA). The vehicle-treated control animals received the same diet but without the peptide. On average, each mouse consumed ~ 2.7 g diet/day.
The complete right hemisphere was immersion-fixed in 4% paraformaldehyde in 0.1 M PBS for 24–48 h, followed by cryoprotection in a 30% sucrose solution at 4 °C overnight. Later, the 40-μm-thick sagittal sections were cut on a freezing microtome. […]
Immunofluorescence staining was performed on free-floating sections, and every 12th brain section was chosen for densitometry and quantification. For immunohistochemical quantification, six brain sections of four animals per group were analyzed. All stainings for fluorescence-intensity quantification were carried out under identical conditions, including all tissue samples for a particular staining processed at the same time, and experimental and control sections photographed under identical settings. […]

[3] = test system: Ts65Dn trisomic Down syndrome mouse model; settings: Ts65Dn mice, prenatal to early postnatal treatment; cited from earlier work
Description: The prenatal to early postnatal period is highly susceptible to epigenomic dysregulation with implications for health. […] Stress and hormones, such as glucocorticoids, testosterone, and estradiol, mediate the development of the brain during critical prenatal and early postnatal periods.

[4] = test system: APP; assay: Western blots of p-APP (Thr668) in hippocampus; assay type: in vivo, mouse; settings: 22-month-old 3xTg-AD mice, normalized with GAPDH, n = 4, P021 diet E8-PND21
Experimental: as §1
The tissue from the left cerebral hemisphere from each mouse stored at− 80 °C was homogenized in a Teflon-glass homogenizer to generate 10% (w/v) homogenate. […] Each homogenate was boiled in 2× Laemmli sample buffer for 5 min, and protein concentration was measured by PierceTM 660-nm protein assay (Thermo Scientific; Rockford, IL, USA).
The samples were subjected to 10% SDS-PAGE and electro-transferred onto Immobilon-P membranes (EMD Millipore; Billerica, MA, USA). […] Densitometric quantification of protein bands in Western blots was analyzed using Multi Gauge version 3.0 software (FUJIFILM North America; Valhalla, NY, USA).

[5] = no method and no reference printed for this sentence, next sentence ref 22, cited from earlier work
Experimental: P021 is quite stable in artificial gastric juice (~ 90% during 30 min) and in artificial intestinal juice (> 95% during 120 min).

In the case of “Ac-DGGL^AG-NH2 [P021, 4-mer CNTF small molecule peptide mimetic to which adamantylated glycine was added at the C-terminal]”, the “escape latency to reach the hidden platform, acquisition phase” value ([1]; 3xTg-AD offspring, P021 diet E8-PND21, 4 training days, three-way ANOVA treatment P = 0.1088, t test 3xTg-Vh vs 3xTg-P021 P < 0.05) is reported as “did not prevent it as determined by the three-way ANOVA but showed a clear tendency as determined by the two-tailed t test”, the “latency to first entrance into the target zone, probe trial” value ([1]; 3xTg-AD offspring, P021 diet E8-PND21, probe 24 h after last training, 3xTg-Vh vs 3xTg-P021 P = 0.0132) is reported as “decreased the latency significantly” and the “swim speed and cued trial” value ([1]; among WT-Vh, WT-P021, 3xTg-Vh, 3xTg-P021 groups) is reported as “no significant difference”. The “plaque-occupied area (Aβ immunofluorescence)” value ([2]; one half of the brain, 6 sections per mouse, n = 4 mice) was “significantly decreased”, the “amyloid plaques detected by Aβ antibody” value ([2]; subiculum, piriform cortex, forebrain and hippocampus, vs 3xTg-Vh) was “markedly reduced” and the “developmental delay and cognitive impairment at adult age” value [3] was “rescues developmental delay and at adult age cognitive impairment”. The “level of phosphorylation of APP at Thr668” value [4] was “rescued”, the “stability in artificial gastric juice” value ([5]; during 30 min) was ~ 90% and the “stability in artificial intestinal juice” value ([5]; during 120 min) was greater than 95%.
